Experimental data as given in patent publication US10167262B2, “Herbicidal substituted 3-arylpyrazoles” (FMC CORPORATION, priority 2014, dated 2019).

Legend:
Assay in all cases: Test E pre-/postemergence greenhouse test, plant response rating 0-100
Format in all cases: in vivo
[1] = system: Brazilian crabgrass (Digitaria horizontalis); details: scale 0 to 100; for Crabgrass, Brazil plant response rating: Preemergence
From the text: (§1) Seeds of plant species selected from corn (Zea mays), soybean (Glycine max), velvetleaf (Abutilon theophrasti), lambsquarters (Chenopodium album), wild poinsettia (Euphorbia heterophylla), palmer pigweed (Amaranthus palmeri), waterhemp (common waterhemp, Amaranthus rudis), surinam grass (Brachiaria decumbens), large (Lg) crabgrass (Digitaria sanguinalis), Brazilian crabgrass (Digitaria horizontalis), fall panicum (Panicum dichotomiflorum), giant foxtail (Setaria faberii), green foxtail (Setaria viridis), goosegrass (Eleusine indica), johnsongrass (Sorghum halepense), ragweed (common ragweed, Ambrosia elatior), barnyardgrass (Echinochloa crus-galli), sandbur (southern sandbur, Cenchrus echinatus), arrowleaf sida (Sida rhombifolia), Italian ryegrass (Lolium multiflorum), dayflower (Virginia (VA) dayflower, Commelina virginica), field bindweed (Convolvulus arvensis), morningglory (Ipomoea coccinea), nightshade (eastern black nightshade, Solanum ptycanthum), kochia (Kochia scoparia), yellow nutsedge (Cyperus esculentus), smartweed (ladysthumb smartweed, Polygonum persicaria), cocklebur (common cocklebur, Xanthium strumarium), and hairy beggarticks (Bidens pilosa), were planted into a silt loam soil and treated preemergence with test chemicals formulated in a non-phytotoxic solvent mixture which included a surfactant.
(§2) At the same time, plants from these crop and weed species and also waterhemp_RES1, (ALS & Triazine resistant common waterhemp, Amaranthus rudis), and waterhemp_RES2, (ALS & HPPD resistant common waterhemp, Amaranthus rudis) were planted in pots containing Redi-Earth® planting medium (Scotts Company, 14111 Scottslawn Road, Marysville, Ohio 43041) comprising spaghnum peat moss, vermiculite, wetting agent and starter nutrients were treated with postemergence applications of test chemicals formulated in the same manner. Plants ranged in height from 2 to 18 cm for postemergence treatments (1- to 4-leaf stage).
(§3) Treated plants and controls were maintained in a greenhouse for 14 to 21 days, after which time all species were compared to controls and visually evaluated. Plant response ratings, summarized in Table E, are based on a scale of 0 to 100 where 0 is no effect and 100 is complete control. A dash (-) response means no test result.

[2] = system: arrowleaf sida (Sida rhombifolia); details: scale 0 to 100; for Arrowleaf Sida plant response rating: Preemergence; for pest or weed control at 16 g/ha: 16 g ai/ha; for pest or weed control at 31 g/ha: 31 g ai/ha
From the text: as §1, §2, §3

[3] = system: barnyardgrass (Echinochloa crus-galli); details: scale 0 to 100; for Barnyardgrass plant response rating: Preemergence
From the text: as §1, §2, §3

[4] = system: dayflower (Virginia (VA) dayflower, Commelina virginica); details: scale 0 to 100; for Dayflower, VA plant response rating: Preemergence
From the text: as §1, §2, §3

[5] = system: fall panicum (Panicum dichotomiflorum); details: scale 0 to 100; for Panicum, Fall plant response rating: Preemergence
From the text: as §1, §2, §3

[6] = system: hairy beggarticks (Bidens pilosa); details: scale 0 to 100; for pest or weed control at 16 g/ha: 16 g ai/ha; for Beggarticks plant response rating: Preemergence
From the text: as §1, §2, §3

[7] = system: palmer pigweed (Amaranthus palmeri); details: scale 0 to 100; for Pigweed, Palmer plant response rating: Preemergence
From the text: as §1, §2, §3

[8] = system: sandbur (southern sandbur, Cenchrus echinatus); details: scale 0 to 100; for Sandbur plant response rating: Preemergence
From the text: as §1, §2, §3

[9] = system: waterhemp (common waterhemp, Amaranthus rudis); details: scale 0 to 100; for pest or weed control at 31 g/ha: 31 g ai/ha; for Waterhemp plant response rating: Preemergence
From the text: as §1, §2, §3

[10] = system: wild poinsettia (Euphorbia heterophylla); details: scale 0 to 100; for Poinsettia, Wild plant response rating: Preemergence
From the text: as §1, §2, §3

[11] = Sida rhombifolia, post-emergence, Postemergence
[12] = Sida rhombifolia, post-emergence, Postemergence, 62 g ai/ha
[13] = Sida rhombifolia, post-emergence, Postemergence, 125 g ai/ha
[14] = Bidens pilosa, post-emergence, Postemergence
[15] = Bidens pilosa, post-emergence, Postemergence, 125 g ai/ha
[16] = Amaranthus palmeri, post-emergence, Postemergence, 62 g ai/ha
[17] = Amaranthus palmeri, post-emergence, Postemergence, 125 g ai/ha
[18] = Amaranthus tuberculatus, post-emergence, Postemergence
[19] = Amaranthus tuberculatus, post-emergence, Postemergence, 125 g ai/ha

SMILES: CCn1cc(C(=O)c2ccccc2)c(-c2cc(Cl)cc(Cl)c2)n1 [Compound 31, [3-(3,5-dichlorophenyl)-1-ethyl-1H-pyrazol-4-yl]phenylmethanone]
- Crabgrass, Brazil plant response rating ([1]; 62 g ai/ha): 0
- Crabgrass, Brazil plant response rating ([1]; 125 g ai/ha): 0
- Crabgrass, Brazil plant response rating ([1]; 250 g ai/ha): 0
- Crabgrass, Brazil plant response rating ([1]; 500 g ai/ha): 50
- Arrowleaf Sida plant response rating ([2]; 62 g ai/ha): 30
- Arrowleaf Sida plant response rating ([2]; 125 g ai/ha): 80
- Arrowleaf Sida plant response rating ([2]; 250 g ai/ha): 90
- Arrowleaf Sida plant response rating ([2]; 500 g ai/ha): 95
- pest or weed control at 16 g/ha [2, 11]: 55%
- pest or weed control at 31 g/ha [2, 11]: 65%
- pest or weed control at 62 g/ha [2, 12]: 80%
- pest or weed control at 125 g/ha [2, 13]: 90%
- Barnyardgrass plant response rating ([3]; 62 g ai/ha): 0
- Barnyardgrass plant response rating ([3]; 125 g ai/ha): 0
- Barnyardgrass plant response rating ([3]; 250 g ai/ha): 0
- Barnyardgrass plant response rating ([3]; 500 g ai/ha): 0
- Dayflower, VA plant response rating ([4]; 62 g ai/ha): 0
- Dayflower, VA plant response rating ([4]; 125 g ai/ha): 0
- Dayflower, VA plant response rating ([4]; 250 g ai/ha): 0
- Dayflower, VA plant response rating ([4]; 500 g ai/ha): 0
- Panicum, Fall plant response rating ([5]; 62 g ai/ha): 0
- Panicum, Fall plant response rating ([5]; 125 g ai/ha): 0
- pest or weed control at 16 g/ha [6, 14]: 70%
- pest or weed control at 31 g/ha ([6]; Bidens pilosa, post-emergence, Postemergence, 31 g ai/ha): 80%
- pest or weed control at 62 g/ha ([6]; Bidens pilosa, post-emergence, Postemergence, 62 g ai/ha): 85%
- pest or weed control at 125 g/ha [6, 15]: 85%
- Beggarticks plant response rating ([6]; 62 g ai/ha): 0
- Beggarticks plant response rating ([6]; 125 g ai/ha): 0
- Beggarticks plant response rating ([6]; 250 g ai/ha): 0
- Beggarticks plant response rating ([6]; 500 g ai/ha): 50
- pest or weed control at 62 g/ha [7, 16]: 60%
- pest or weed control at 125 g/ha [7, 17]: 75%
- Pigweed, Palmer plant response rating ([7]; 62 g ai/ha): 0
- Pigweed, Palmer plant response rating ([7]; 125 g ai/ha): 70
- Pigweed, Palmer plant response rating ([7]; 250 g ai/ha): 98
- Pigweed, Palmer plant response rating ([7]; 500 g ai/ha): 100
- Sandbur plant response rating ([8]; 62 g ai/ha): 0
- Sandbur plant response rating ([8]; 125 g ai/ha): 0
- Sandbur plant response rating ([8]; 250 g ai/ha): 0
- Sandbur plant response rating ([8]; 500 g ai/ha): 0
- pest or weed control at 31 g/ha [9, 18]: 50%
- pest or weed control at 125 g/ha [9, 19]: 60%
- Waterhemp plant response rating ([9]; 62 g ai/ha): 80
- Waterhemp plant response rating ([9]; 125 g ai/ha): 90
- Waterhemp plant response rating ([9]; 250 g ai/ha): 100
- Waterhemp plant response rating ([9]; 500 g ai/ha): 100
- Poinsettia, Wild plant response rating ([10]; 62 g ai/ha): 0
- Poinsettia, Wild plant response rating ([10]; 125 g ai/ha): 0
- Poinsettia, Wild plant response rating ([10]; 250 g ai/ha): 0
- Poinsettia, Wild plant response rating ([10]; 500 g ai/ha): 0

SMILES: Clc1cc(Cl)cc(-c2n[nH]cc2C(=NN2CCCC2)c2ccccc2)c1 [Compound 30, N-[[3-(3,5-dichlorophenyl)-1H-pyrazol-4-yl]phenylmethylene]-1-pyrrolidinamine]
- pest or weed control at 16 g/ha ([1]; Digitaria horizontalis, post-emergence, Postemergence, 16 g ai/ha, read-out: Plant response rating, Crabgrass, Brazil): 0%
- pest or weed control at 31 g/ha ([1]; Digitaria horizontalis, post-emergence, Postemergence, 31 g ai/ha, read-out: Plant response rating, Crabgrass, Brazil): 0%
- pest or weed control at 62 g/ha ([1]; Digitaria horizontalis, post-emergence, Postemergence, 62 g ai/ha, read-out: Plant response rating, Crabgrass, Brazil): 0%
- pest or weed control at 125 g/ha ([1]; Digitaria horizontalis, post-emergence, Postemergence, 125 g ai/ha, read-out: Plant response rating, Crabgrass, Brazil): 0%
- pest or weed control at 250 g/ha ([1]; Digitaria horizontalis, post-emergence, Postemergence, 250 g ai/ha, read-out: Plant response rating, Crabgrass, Brazil): 0%
- pest or weed control at 16 g/ha [2, 11]: 50%
- pest or weed control at 31 g/ha [2, 11]: 50%
- pest or weed control at 62 g/ha [2, 12]: 70%
- pest or weed control at 125 g/ha [2, 13]: 80%
- pest or weed control at 250 g/ha ([2]; Sida rhombifolia, post-emergence, Postemergence, 250 g ai/ha): 80%
- pest or weed control at 16 g/ha ([3]; Echinochloa crus-galli, post-emergence, Postemergence, 16 g ai/ha): 0%
- pest or weed control at 31 g/ha ([3]; Echinochloa crus-galli, post-emergence, Postemergence, 31 g ai/ha): 0%
- pest or weed control at 62 g/ha ([3]; Echinochloa crus-galli, post-emergence, Postemergence, 62 g ai/ha): 0%
- pest or weed control at 125 g/ha ([3]; Echinochloa crus-galli, post-emergence, Postemergence, 125 g ai/ha): 0%
- pest or weed control at 250 g/ha ([3]; Echinochloa crus-galli, post-emergence, Postemergence, 250 g ai/ha): 0%
- pest or weed control at 16 g/ha ([4]; Commelina virginica, post-emergence, Postemergence, 16 g ai/ha): 0%
- pest or weed control at 31 g/ha ([4]; Commelina virginica, post-emergence, Postemergence, 31 g ai/ha): 0%
- pest or weed control at 62 g/ha ([4]; Commelina virginica, post-emergence, Postemergence, 62 g ai/ha): 0%
- pest or weed control at 125 g/ha ([4]; Commelina virginica, post-emergence, Postemergence, 125 g ai/ha): 0%
- pest or weed control at 250 g/ha ([4]; Commelina virginica, post-emergence, Postemergence, 250 g ai/ha): 0%
- pest or weed control at 31 g/ha ([5]; Panicum dichotomiflorum, post-emergence, Postemergence, 31 g ai/ha): 0%
- pest or weed control at 62 g/ha ([5]; Panicum dichotomiflorum, post-emergence, Postemergence, 62 g ai/ha): 0%
- pest or weed control at 125 g/ha ([5]; Panicum dichotomiflorum, post-emergence, Postemergence, 125 g ai/ha): 0%
- pest or weed control at 250 g/ha ([5]; Panicum dichotomiflorum, post-emergence, Postemergence, 250 g ai/ha): 0%
- pest or weed control at 16 g/ha [6, 14]: 80%
- pest or weed control at 125 g/ha [6, 15]: 85%
- pest or weed control at 250 g/ha ([6]; Bidens pilosa, post-emergence, Postemergence, 250 g ai/ha): 100%
- pest or weed control at 31 g/ha ([7]; Amaranthus palmeri, post-emergence, Postemergence, 31 g ai/ha): 40%
- pest or weed control at 62 g/ha [7, 16]: 100%
- pest or weed control at 125 g/ha [7, 17]: 100%
- pest or weed control at 250 g/ha ([7]; Amaranthus palmeri, post-emergence, Postemergence, 250 g ai/ha): 100%
- pest or weed control at 31 g/ha ([8]; Cenchrus echinatus, post-emergence, Postemergence, 31 g ai/ha): 0%
- pest or weed control at 62 g/ha ([8]; Cenchrus echinatus, post-emergence, Postemergence, 62 g ai/ha): 0%
- pest or weed control at 125 g/ha ([8]; Cenchrus echinatus, post-emergence, Postemergence, 125 g ai/ha): 0%
- pest or weed control at 250 g/ha ([8]; Cenchrus echinatus, post-emergence, Postemergence, 250 g ai/ha): 0%
- pest or weed control at 31 g/ha [9, 18]: 60%
- pest or weed control at 62 g/ha ([9]; Amaranthus tuberculatus, post-emergence, Postemergence, 62 g ai/ha): 70%
- pest or weed control at 125 g/ha [9, 19]: 70%
- pest or weed control at 250 g/ha ([9]; Amaranthus tuberculatus, post-emergence, Postemergence, 250 g ai/ha): 75%
- pest or weed control at 31 g/ha ([10]; Euphorbia heterophylla, post-emergence, Postemergence, 31 g ai/ha, read-out: Plant response rating, Poinsettia, Wild): 0%
- pest or weed control at 62 g/ha ([10]; Euphorbia heterophylla, post-emergence, Postemergence, 62 g ai/ha, read-out: Plant response rating, Poinsettia, Wild): 0%
- pest or weed control at 125 g/ha ([10]; Euphorbia heterophylla, post-emergence, Postemergence, 125 g ai/ha, read-out: Plant response rating, Poinsettia, Wild): 0%
- pest or weed control at 250 g/ha ([10]; Euphorbia heterophylla, post-emergence, Postemergence, 250 g ai/ha, read-out: Plant response rating, Poinsettia, Wild): 0%
